# Article PMC6738068 (British Journal of Cancer, 2019)
# “And” between values parts separate entries of the source, which are not always exact repeats. Equal values may be shown once. “Also recorded” adds a separate entry of the source. Read-outs that look alike come from different tables or passages of the source.
# Experiments:
# AurB = system: AurB; set-up: method as in printed; settings: preclinical, ref not given; cited from earlier work
# OCT2 = system: OCT2; set-up: method as in printed; settings: preclinical testing, ref not given; cited from earlier work
# P-glycoprotein = system: P-glycoprotein; set-up: method as in printed; settings: preclinical testing, ref not given; cited from earlier work
# dogs = system: dogs; set-up: method as in printed; settings: toxicology studies, ref not given; cited from earlier work
# Abl [T315I] = system: Abl [T315I]; set-up: method as in printed; settings: preclinical, ref not given; cited from earlier work
# Tie2 = system: Tie2; set-up: method as in printed; settings: preclinical, ref not given; cited from earlier work
# BSEP = system: BSEP; set-up: method as in printed; settings: preclinical testing, ref not given; cited from earlier work
# advanced solid tumours = test: Phase 1 efficacy assessment (RECIST v1.1); assay type: in vivo, human
# Experimental: Diagnostic imaging response assessments (computed tomography or magnetic resonance imaging) were performed at baseline and at the end of every two cycles or as clinically indicated. All patients who had at least one post-baseline radiographic assessment of target, non-target, and new lesions constituted the efficacy-evaluable population. Patients were evaluated for complete response (CR), partial response (PR), stable disease (SD) ≥6 months, or progressive disease as determined by RECIST v1.1.[17] Objective response rate (ORR = CR + PR) and clinical benefit rate (CBR = CR + PR + SD ≥ 6 months) were evaluated. Data cut-off for the efficacy-evaluable population was January 21, 2019.
# [1] = system: patients with advanced solid tumours
# Excerpt: A standard 3+3 dose-escalation scheme was used to identify the maximally tolerated dose (MTD) and RP2D.
# Patients without evidence of high-grade neutropenia during this run-in period resumed daily dosing in standard 28-day cycles.
# Select haematologic DLT included febrile neutropenia grade ≥3 and/or neutropenia grade ≥3 associated with infection or asymptomatic neutropenia grade ≥3 that persisted for >7 days. Use of haematopoietic growth factors (e.g. G-CSF, erythropoietin) in Cycle 1 was not permitted unless a DLT occurred.
# The RP2D was based on the MTD established during dose escalation together with a comprehensive review of toxicities, PKs, and efficacy outcomes.
# Dose escalations occurred in 100% increments for individual dosing cohorts up to 32 mg/day. Subsequent dose escalations continued in increments not exceeding 50%, depending on toxicities experienced, and with the approval of local Investigators and the external Medical Monitor.
# Hematologic DLTs were defined as drug-related anemia grade ≥3; febrile neutropenia grade ≥3, and/or neutropenia grade ≥3 associated with infection; asymptomatic neutropenia grade ≥3 that persisted for >7 days; asymptomatic thrombocytopenia grade ≥3 that persisted for >7 days following treatment interruption; grade 3 thrombocytopenia associated with bleeding; or grade 4 thrombocytopenia.
# Dose escalation decisions were made following the completion of Cycle 1 for all patients enrolled in a given dose level, taking into consideration adverse events (AE) and pharmacokinetic results.
# [2] = Plasma pharmacokinetics in phase 1 patients; assay type: in vivo, human
# Experimental: In the expansion cohort, blood samples were collected on Day 1 for Cycle 0 and Day 28 of Cycle 1. Additional samples were drawn prior to dosing on Day 15 of subsequent cycles.
# Samples were analysed in accordance with all applicable United States Federal Drug Administration (FDA) and Organisation for Economic Co-operation and Development (OECD) regulations. […] After evaporation of the extraction solvent, sample extracts were reconstituted and analysed by reversed-phase high-performance liquid chromatography using a Waters Atlantis dC18 column. The mobile phase was nebulised using heated nitrogen in a Z-spray source/interface set to electrospray positive ionisation. The ionised compounds were detected using mass spectrometry. The lower limit of quantification was 20 pg/ml. Samples were analysed at Microconstants, San Diego, CA.
# rodents = system: rodents; set-up: method as in printed; settings: toxicology studies, ref not given; cited from earlier work
# TrkB = system: TrkB; set-up: method as in printed; settings: preclinical, ref not given; cited from earlier work
# FGFR1 = system: FGFR1; set-up: method as in printed; settings: preclinical, ref not given; cited from earlier work
# PLK2 = system: PLK2; set-up: method as in printed; settings: preclinical, ref not given; cited from earlier work
# [3] = efficacy-evaluable population (n = 49)
# [4] = patient with AKT1 E17K mutant endometrioid endometrial carcinoma
# [5] = patient with MSS endometrial carcinoma
# [6] = oral daily 72 mg (n = 6; one patient removed, not DLT evaluable)
structure (smiles),measurement,setting,value
COc1ccc2c(c1)[C@]1(C[C@H]1c1ccc3c(/C=C/c4ccc(CN5C[C@@H](C)O[C@@H](C)C5)cc4)n[nH]c3c1)C(=O)N2 [CFI-400945],IC50,AurB,< 100 nM
same,inhibition of OCT2,OCT2,inhibitor
same,inhibition of P-glycoprotein,P-glycoprotein,inhibitor
same,primary toxicities,dogs,"haematopoietic effects (myeloid suppression, bone marrow hypocellularity)"
same,IC50,Abl [T315I],< 100 nM
same,IC50,Tie2,< 100 nM
same,inhibition of BSEP,BSEP,inhibitor
same,Progressive disease as best response,advanced solid tumours; 35/49 patients,71%
same,patients with SD ≥6 months,advanced solid tumours; RECIST v1.1,two and 2/13
same,partial responses (PR),"advanced solid tumours; adenoid cystic carcinoma, 48 mg",One PR
same,ORR,"advanced solid tumours; efficacy-evaluable cohort, 1/49",2%
same,CBR,"advanced solid tumours; efficacy-evaluable cohort, 3/49",6%
same,complete responses (CR),advanced solid tumours; [3],No CRs
same,"duration on study, range",advanced solid tumours; [3],0.1–40.7 months
same,median duration on study,advanced solid tumours; [3],1.9 months
same,median progression-free survival,advanced solid tumours; [3],3.2 months
same,patients with SD as best response,advanced solid tumours; [3],13 patients
same,"progression-free survival, 95% confidence interval",advanced solid tumours; [3],1.6–4.9 months
same,lowest dose with evidence of antitumour activity,advanced solid tumours; in vivo,48 mg
same,target lesion reduction,advanced solid tumours; [4],−19%
same,time on study with SD,advanced solid tumours; [4],6 cycles
same,time on study,"advanced solid tumours; patient with KRAS-mutant, MSS colorectal cancer, 48 mg",12 cycles
same,duration of SD,advanced solid tumours; [5],8 cycles
same,reduction in target lesions,advanced solid tumours; [5],3.7%
same,"duration of PR / time on trial, ongoing at data cut-off","advanced solid tumours; patient with adenoid cystic carcinoma, 48 mg",45 cycles
same,DLT events,"[1]; 64 mg dose escalation, 6 patients",no DLT events
same,patients with a DLT event,"[1]; 64 mg dose level, escalation plus expansion",1/15
same,DLT event in dose expansion,"[1]; 64 mg expansion, Cycle 1 Day 15",One patient experienced grade 4 febrile neutropenia
same,tolerability,"[1]; 64 mg, continuous daily dosing",well tolerated; also recorded: tolerable
same,DLT events,"[1]; 72 mg (7 total), Cycle 1",Two patients experienced DLT events
same,tolerability,[1]; 96 mg daily,intolerable
same,DLT events,"[1]; 96 mg, Cycle 1",one DLT (grade 3 febrile neutropenia)
same,"Total number of patients with DLT, all dosages",[1]; 3-96 mg (n = 48),4
same,"DLT description, grade 3",[1]; all dose levels (n = 48),"Neutropenia, febrile neutropenia"
same,"DLT description, grade 4",[1]; all dose levels (n = 48),"Febrile neutropenia, lipase elevated"
same,recommended phase 2 dose (RP2D),[1]; continuous daily oral dosing,64 mg
same,principal DLT,[1]; continuous dosing schedule,Neutropenia
same,Total number of patients with DLT at each dosage,[1]; oral daily 3 mg (n = 3),0
same,"patients with DLT, grade 1",[1]; oral daily 3 mg (n = 3),0
same,"patients with DLT, grade 2",[1]; oral daily 3 mg (n = 3),0
same,"patients with DLT, grade 3, number (%)",[1]; oral daily 3 mg (n = 3),0
same,"patients with DLT, grade 4, number (%)",[1]; oral daily 3 mg (n = 3),0
same,"patients with DLT, grade 5",[1]; oral daily 3 mg (n = 3),0
same,Total number of patients with DLT at each dosage,[1]; oral daily 6 mg (n = 3),0
same,"patients with DLT, grade 1",[1]; oral daily 6 mg (n = 3),0
same,"patients with DLT, grade 2",[1]; oral daily 6 mg (n = 3),0
same,"patients with DLT, grade 3, number (%)",[1]; oral daily 6 mg (n = 3),0
same,"patients with DLT, grade 4, number (%)",[1]; oral daily 6 mg (n = 3),0
same,"patients with DLT, grade 5",[1]; oral daily 6 mg (n = 3),0
same,Total number of patients with DLT at each dosage,[1]; oral daily 11 mg (n = 3),0
same,"patients with DLT, grade 1",[1]; oral daily 11 mg (n = 3),0
same,"patients with DLT, grade 2",[1]; oral daily 11 mg (n = 3),0
same,"patients with DLT, grade 3, number (%)",[1]; oral daily 11 mg (n = 3),0
same,"patients with DLT, grade 4, number (%)",[1]; oral daily 11 mg (n = 3),0
same,"patients with DLT, grade 5",[1]; oral daily 11 mg (n = 3),0
same,Total number of patients with DLT at each dosage,[1]; oral daily 16 mg (n = 3),0
same,"patients with DLT, grade 1",[1]; oral daily 16 mg (n = 3),0
same,"patients with DLT, grade 2",[1]; oral daily 16 mg (n = 3),0
same,"patients with DLT, grade 3, number (%)",[1]; oral daily 16 mg (n = 3),0
same,"patients with DLT, grade 4, number (%)",[1]; oral daily 16 mg (n = 3),0
same,"patients with DLT, grade 5",[1]; oral daily 16 mg (n = 3),0
same,Total number of patients with DLT at each dosage,[1]; oral daily 24 mg (n = 3),0
same,"patients with DLT, grade 1",[1]; oral daily 24 mg (n = 3),0
same,"patients with DLT, grade 2",[1]; oral daily 24 mg (n = 3),0
same,"patients with DLT, grade 3, number (%)",[1]; oral daily 24 mg (n = 3),0
same,"patients with DLT, grade 4, number (%)",[1]; oral daily 24 mg (n = 3),0
same,"patients with DLT, grade 5",[1]; oral daily 24 mg (n = 3),0
same,Total number of patients with DLT at each dosage,[1]; oral daily 32 mg (n = 3),0
same,"patients with DLT, grade 1",[1]; oral daily 32 mg (n = 3),0
same,"patients with DLT, grade 2",[1]; oral daily 32 mg (n = 3),0
same,"patients with DLT, grade 3, number (%)",[1]; oral daily 32 mg (n = 3),0
same,"patients with DLT, grade 4, number (%)",[1]; oral daily 32 mg (n = 3),0
same,"patients with DLT, grade 5",[1]; oral daily 32 mg (n = 3),0
same,Total number of patients with DLT at each dosage,[1]; oral daily 48 mg (n = 3),0
same,"patients with DLT, grade 1",[1]; oral daily 48 mg (n = 3),0
same,"patients with DLT, grade 2",[1]; oral daily 48 mg (n = 3),0
same,"patients with DLT, grade 3, number (%)",[1]; oral daily 48 mg (n = 3),0
same,"patients with DLT, grade 4, number (%)",[1]; oral daily 48 mg (n = 3),0
same,"patients with DLT, grade 5",[1]; oral daily 48 mg (n = 3),0
same,Total number of patients with DLT at each dosage,[1]; oral daily 64 mg (n = 15),1
same,"patients with DLT, grade 1",[1]; oral daily 64 mg (n = 15),0
same,"patients with DLT, grade 2",[1]; oral daily 64 mg (n = 15),0
same,"patients with DLT, grade 3, number (%)",[1]; oral daily 64 mg (n = 15),0
same,"patients with DLT, grade 4, number (%)",[1]; oral daily 64 mg (n = 15),1 (6.7)
same,"patients with DLT, grade 5",[1]; oral daily 64 mg (n = 15),0
same,Total number of patients with DLT at each dosage,[1]; [6],2
same,"patients with DLT, grade 1",[1]; [6],0
same,"patients with DLT, grade 2",[1]; [6],0
same,"patients with DLT, grade 3, number (%)",[1]; [6],1 (16.7)
same,"patients with DLT, grade 4, number (%)",[1]; [6],1 (16.7)
same,"patients with DLT, grade 5",[1]; [6],0
same,Total number of patients with DLT at each dosage,[1]; oral daily 96 mg (n = 6),1
same,"patients with DLT, grade 1",[1]; oral daily 96 mg (n = 6),0
same,"patients with DLT, grade 2",[1]; oral daily 96 mg (n = 6),0
same,"patients with DLT, grade 3, number (%)",[1]; oral daily 96 mg (n = 6),1 (16.7)
same,"patients with DLT, grade 4, number (%)",[1]; oral daily 96 mg (n = 6),0
same,"patients with DLT, grade 5",[1]; oral daily 96 mg (n = 6),0
same,dose proportionality of exposure,[2]; 3-96 mg,generally dose proportional
same,"exposure at Day 28 higher than exposure at Day 1, average",[2]; across all dose levels,37%
same,AUC(0-t),"[2]; human, plasma, oral, 64 mg, Day 1, read-out: AUC0–24 h",428 ng·h/mL
same,Cmax,"[2]; human, plasma, oral, 64 mg, Day 1, read-out: average Cmax",37 ng/mL
same,AUC(0-t),"[2]; human, plasma, oral, 64 mg, after 28 days of dosing, read-out: AUC0–24 h",564 ng·h/mL
same,Cmax,"[2]; human, plasma, oral, 64 mg, after 28 days of dosing, read-out: average Cmax",44 ng/mL
same,AUC(0-t),"[2]; human, plasma, oral, Day 1, read-out: AUC0–24 h values associated with grade 3/4 neutropenia",> 400 ng·h/mL
same,Cmax,"[2]; human, plasma, oral, Day 1, read-out: Cmax values associated with grade 3/4 neutropenia",≥ 38 ng/mL
same,half-life,"[2]; human, plasma, oral, 64 mg, Day 1, read-out: half-life (t1/2) (converted)",9 h
same,time to maximum plasma concentration (Cmax) after dosing,"[2]; oral, fasting state",2 to 4 h
same,primary toxicities,rodents,"haematopoietic effects (myeloid suppression, bone marrow hypocellularity)"
same,IC50,TrkB,< 100 nM
same,IC50,FGFR1,< 100 nM
same,IC50,PLK2,> 50000 nM
